{"source": "ChEMBL document CHEMBL6092166", "about": "“Design, synthesis and enzymatic inhibition evaluation of novel 4-hydroxy Pd-C-Ⅲ derivatives as α-glucosidase and PTP1B dual-target inhibitors” (Eur J Med Chem, 2024)", "key": {"Alpha glucosidase [1]": {"target": "T1, Alpha glucosidase (Homo sapiens, UniProt O43451+P10253+P14410+Q2M2H8)", "test": "Inhibition of alpha-glucosidase (unknown origin) using p-NPG as substrate preincubated for 15 mins followed by substrate addition for 30 mins by absorbance based analysis", "assay_type": "protein assay"}, "Alpha glucosidase [2]": {"target": "T1, Alpha glucosidase", "test": "Inhibition of alpha-glucosidase (unknown origin) using p-NPG as substrate incubated for 15 mins by spectrophotometric analysis", "assay_type": "protein assay"}, "[3]": {"target": "T2, Tyrosine-protein phosphatase non-receptor type 1 (Homo sapiens, UniProt P18031)", "T2 sequence (P18031 whole entry)": "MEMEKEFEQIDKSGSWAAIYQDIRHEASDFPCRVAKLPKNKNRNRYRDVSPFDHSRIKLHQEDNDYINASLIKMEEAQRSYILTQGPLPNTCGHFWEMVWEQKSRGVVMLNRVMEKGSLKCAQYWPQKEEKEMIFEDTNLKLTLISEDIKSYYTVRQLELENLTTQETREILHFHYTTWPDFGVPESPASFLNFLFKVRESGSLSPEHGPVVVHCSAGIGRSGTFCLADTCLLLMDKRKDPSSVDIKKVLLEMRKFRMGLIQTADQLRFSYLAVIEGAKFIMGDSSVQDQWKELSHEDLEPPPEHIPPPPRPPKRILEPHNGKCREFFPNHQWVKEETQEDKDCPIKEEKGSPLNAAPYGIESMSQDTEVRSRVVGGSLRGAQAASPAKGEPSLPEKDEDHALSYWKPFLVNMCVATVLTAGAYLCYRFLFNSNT", "test": "Inhibition of PTP1B (unknown origin) using pNPP as substrate preincubated for 10 mins followed by substrate addition for 20 mins by absorbance based analysis"}}, "data": [{"smiles": "O=C(/C=C/c1ccccc1Cl)OCCOc1ccc2ccc(=O)oc2c1", "values": [{"measurement": "IC50", "setting": "Alpha glucosidase [1]", "result": 258.7, "unit": "µM"}]}, {"smiles": "CC1(C)Oc2cc3oc(=O)ccc3cc2C[C@@H]1O", "note": "[DECURSINOL]", "values": [{"measurement": "IC50", "setting": "Alpha glucosidase [2]", "result": 65.3, "unit": "µM"}, {"measurement": "IC50", "setting": "[3]", "result": 58.9, "unit": "µM"}]}, {"smiles": "O=C(OCCCOc1ccc2ccc(=O)oc2c1)c1ccc(Cl)cc1Cl", "values": [{"measurement": "IC50", "setting": "Alpha glucosidase [1]", "result": "> 300", "unit": "µM"}]}, {"smiles": "O=C(/C=C/c1ccc(Cl)cc1Cl)OCCCOc1ccc2ccc(=O)oc2c1", "values": [{"measurement": "IC50", "setting": "Alpha glucosidase [1]", "result": "> 300", "unit": "µM"}]}, {"smiles": "C/C=C\\C(=O)O[C@H]1[C@H](O)c2cc3ccc(=O)oc3cc2OC1(C)C", "values": [{"measurement": "IC50", "setting": "Alpha glucosidase [2]", "result": 77.3, "unit": "µM"}, {"measurement": "IC50", "setting": "[3]", "result": 5.4, "unit": "µM"}]}, {"smiles": "O=C(/C=C/c1ccc(Cl)cc1)OCCOc1ccc2ccc(=O)oc2c1", "values": [{"measurement": "IC50", "setting": "Alpha glucosidase [1]", "result": 283.2, "unit": "µM"}]}, {"smiles": "O=C(/C=C/c1cccc(F)c1)OCCOc1ccc2ccc(=O)oc2c1", "values": [{"measurement": "IC50", "setting": "Alpha glucosidase [1]", "result": "> 300", "unit": "µM"}]}, {"smiles": "COc1ccc(/C=C/C(=O)OCCOc2ccc3ccc(=O)oc3c2)cc1Br", "values": [{"measurement": "IC50", "setting": "Alpha glucosidase [1]", "result": 286.2, "unit": "µM"}]}, {"smiles": "Cc1cc(OCCOC(=O)/C=C/c2ccc(Cl)cc2Cl)cc2oc(=O)cc(C)c12", "values": [{"measurement": "IC50", "setting": "Alpha glucosidase [1]", "result": 124.1, "unit": "µM"}]}, {"smiles": "O=C(OCCOc1ccc2ccc(=O)oc2c1)c1ccc(Cl)cc1Cl", "values": [{"measurement": "IC50", "setting": "Alpha glucosidase [1]", "result": 99, "unit": "µM"}]}, {"smiles": "CO[C@@H]1c2cc3ccc(=O)oc3cc2OC(C)(C)[C@H]1OC(=O)C=C(C)C", "values": [{"measurement": "IC50", "setting": "Alpha glucosidase [2]", "result": 89.2, "unit": "µM"}, {"measurement": "IC50", "setting": "[3]", "result": 6.6, "unit": "µM"}]}, {"smiles": "O=C(/C=C/c1cccc(Cl)c1)OCCOc1ccc2ccc(=O)oc2c1", "values": [{"measurement": "IC50", "setting": "Alpha glucosidase [1]", "result": "> 300", "unit": "µM"}]}, {"smiles": "COc1cc(/C=C/C(=O)OCCOc2ccc3ccc(=O)oc3c2)ccc1O", "values": [{"measurement": "IC50", "setting": "Alpha glucosidase [1]", "result": "> 300", "unit": "µM"}]}, {"smiles": "O=C(/C=C/c1cccc(Br)c1)OCCOc1ccc2ccc(=O)oc2c1", "values": [{"measurement": "IC50", "setting": "Alpha glucosidase [1]", "result": 132.7, "unit": "µM"}]}, {"smiles": "O=C(/C=C/c1ccc(F)cc1)OCCOc1ccc2ccc(=O)oc2c1", "values": [{"measurement": "IC50", "setting": "Alpha glucosidase [1]", "result": "> 300", "unit": "µM"}]}, {"smiles": "O=C(/C=C/c1ccc(Cl)cc1Cl)OCCOc1ccc2ccc(=O)oc2c1", "values": [{"measurement": "IC50", "setting": "Alpha glucosidase [1]", "result": 116.5, "unit": "µM"}]}]}
